Laboratory results: ChEMBL document CHEMBL6078615, “Sesquilignans: Current research and potential prospective” (Eur J Med Chem, 2024)
Values after ≈ are worked out from the molar mass of the structure shown.

Key:
SH-SY5Y [1] = test: Inhibition of H2O2-induced oxidative stress in human SH-SY5Y cells assessed as residual ROS level at 25 uM incubated for 3 hrs relative to control; assay type: functional
Ebolavirus = test: Antiviral activity against Ebola virus; assay type: functional, organism-based; conditions: Orthoebolavirus
Acetylcholinesterase = Acetylcholinesterase (Homo sapiens, UniProt P22303); test: Inhibition of AChE (unknown origin)
Sequence of Acetylcholinesterase (P22303 whole entry): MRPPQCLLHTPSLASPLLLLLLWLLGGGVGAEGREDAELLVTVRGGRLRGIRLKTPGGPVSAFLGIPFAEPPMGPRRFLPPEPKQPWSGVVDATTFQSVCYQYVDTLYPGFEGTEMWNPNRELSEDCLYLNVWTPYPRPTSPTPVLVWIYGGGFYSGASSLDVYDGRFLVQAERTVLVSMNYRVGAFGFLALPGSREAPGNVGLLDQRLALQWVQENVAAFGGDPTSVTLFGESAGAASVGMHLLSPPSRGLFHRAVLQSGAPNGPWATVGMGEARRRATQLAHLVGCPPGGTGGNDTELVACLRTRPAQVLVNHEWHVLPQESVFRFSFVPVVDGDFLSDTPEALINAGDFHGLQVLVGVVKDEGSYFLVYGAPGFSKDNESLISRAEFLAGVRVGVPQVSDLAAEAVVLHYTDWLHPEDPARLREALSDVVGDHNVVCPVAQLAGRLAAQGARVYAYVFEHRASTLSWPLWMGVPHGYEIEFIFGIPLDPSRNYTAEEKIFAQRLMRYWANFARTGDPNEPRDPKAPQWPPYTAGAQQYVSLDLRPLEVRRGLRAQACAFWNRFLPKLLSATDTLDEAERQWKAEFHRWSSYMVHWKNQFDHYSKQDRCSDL

SH-SY5Y [2] = test: Induction of apoptosis in human SH-SY5Y cells assessed as increase in caspase-3 activity at 25 uM incubated for 72 hrs by colorimetric assay relative to control; assay type: functional
[3] = Antioxidant activity assessed as DPPH radical scavenging activity incubated for 30 mins by spectrophotometric analysis; assay type: functional
RAW264.7 = test: Anti-inflammatory activity in mouse RAW264.7 cells assessed as inhibition of LPS-induced NO production pre-incubated for 2 hrs followed by LPS-stimulation for 22 hrs by Griess reaction assay; assay type: functional; set-up: concentration or dose not given beside the values; conditions: time 24 hrs
K562 = test: Antiproliferative activity against human K562 cells assessed as reduction in cell viability incubated for 72 hrs by CCK-8 assay; assay type: functional, cell-based; conditions: K562, 72 h
[4] = Inhibition of alpha-glucosidase (unknown origin); set-up: species or system Homo sapiens
BV-2 [5] = test: Anti-inflammatory activity against mouse BV-2 cells assessed as inhibition of LPS-induced NO production pretreated for 2 hrs followed stimulated with LPS for 22 hrs by Griess reaction assay; assay type: functional, cell-based
[6] = Cytotoxicity against human HUVEC cells assessed as reduction in cell growth incubated for 48 hrs by CCK-8 method; assay type: toxicity, cell-based
CNE-2 = test: Anticancer activity against human CNE-2 cells assessed as reduction in cell growth; assay type: functional, cell-based
HeLa = test: Cytotoxicity against human HeLa cells assessed as reduction in cell viability incubated for 48 hrs by MTT assay; assay type: functional, cell-based
BV-2 [7] = test: Anti-inflammatory activity against mouse BV-2 cells assessed as inhibition of LPS-induced NO production at 10 uM pretreated for 2 hrs followed stimulated with LPS for 22 hrs by Griess reaction assay relative to control; assay type: functional; conditions: time 24 hrs
MCF7 = test: Cytotoxicity against human MCF7 cells assessed as reduction in cell viability incubated for 72 hrs by MTT assay; assay type: functional, cell-based; conditions: MCF7, 72 h
HL-60 = test: Antiproliferative activity against human HL-60 cells assessed as reduction in cell viability incubated for 72 hrs by MTT assay; assay type: functional, cell-based; conditions: HL-60, 72 h
HepG2 = test: Cytotoxicity against human HepG2 cells assessed as reduction in cell viability by MTT assay; assay type: functional, cell-based
HT-29 = test: Antiproliferative activity against human HT-29 cells assessed as reduction in cell viability after 72 hrs by MTS assay; assay type: functional, cell-based; conditions: HT-29, 72 h

COc1cc([C@H](O)[C@@H](CO)Oc2ccc([C@@H](O)[C@@H](CO)Oc3c(OC)cc(CCCO)cc3OC)cc2OC)ccc1O
Activity (SH-SY5Y [1]): 77.58%

COc1cc([C@H](OC)[C@@H](CO)Oc2c(OC)cc([C@@H]3Oc4c(OC)cc([C@H](O)[C@@H](O)CO)cc4[C@H]3CO)cc2OC)ccc1O
Activity (SH-SY5Y [1]): 76.21%

COc1cc([C@H](O)[C@@H](CO)Oc2ccc([C@@H](O)[C@H](CO)Oc3c(OC)cc([C@H](O)[C@@H](O)CO)cc3OC)cc2OC)ccc1O
Activity (SH-SY5Y [1]): 75.9%

COc1ccc([C@@H](O)[C@@H](C)Oc2ccc([C@H]3O[C@H](c4ccc(OC)c(OC)c4)[C@H](C)[C@H]3C)cc2OC)cc1OC
EC50 (Ebolavirus): 1.7 µM

C=CCc1ccc(Oc2cc(CC=C)cc(-c3cc(CC=C)ccc3O)c2O)cc1
IC50 (Acetylcholinesterase): 10 µM

COc1cc([C@@H](O)[C@@H](CO)Oc2ccc([C@H](O)[C@H](CO)Oc3c(OC)cc([C@H](O)[C@@H](O)CO)cc3OC)cc2OC)ccc1O
Activity (SH-SY5Y [1]): 75.8%

COc1cc([C@@H](OC)[C@@H](CO)Oc2c(OC)cc([C@@H]3Oc4c(OC)cc([C@H](O)[C@@H](O)CO)cc4[C@H]3CO)cc2OC)ccc1O
Activity (SH-SY5Y [1]): 90.74%
Activity (SH-SY5Y [2]): 90.74%

CCO[C@@H](c1ccc(O)c(OC)c1)[C@H](CO)Oc1ccc([C@H](O)[C@@H](CO)Oc2ccc(CCCO)cc2OC)cc1OC
Activity (SH-SY5Y [1]): 71.1%

CC(Cc1ccc(O)cc1)c1cc([C@H]2O[C@@H](c3ccc(O)c(O)c3)[C@H](C)[C@H]2C)ccc1O (some centres undefined)
IC50 [3]: 1.12 µM

C=CCc1ccc2c(c1)O[C@@H](c1ccc(O)c(O)c1)[C@H](Cc1cc(O)c(O)cc1CC=C)O2
Activity (RAW264.7): 9.87%

COc1cc([C@@H]2c3c(cc(OC)c4c3[C@H](CO)[C@H](c3ccc(O[C@@H]5O[C@H](CO)[C@@H](O)[C@H](O)[C@H]5O)c(OC)c3)O4)C[C@H](CO)[C@H]2CO)ccc1O
Activity (RAW264.7): 64.82%

COc1cc(C[C@H]2C(=O)OC[C@@H]2Cc2cc(OC)c3c(c2)[C@H](CO)[C@@H](c2ccc(O)c(OC)c2)O3)ccc1O
IC50 (K562): 51.1 µg/mL (≈ 95.2 µM)

COc1cc([C@@H](O)[C@@H](CO)Oc2ccc([C@@H]3OC[C@@H]4[C@H]3CO[C@H]4c3ccc(O)c(OC)c3)cc2OC)ccc1O
IC50 [4]: 3.05 µM

COc1cc([C@H]2OC[C@H]3[C@@H]2CO[C@@H]3c2cc(OC)c(OC)c(OC)c2)ccc1O[C@@H](CO)[C@H](O)c1cc(OC)c(OC)c(OC)c1
IC50 (BV-2 [5]): 10.9 µM

COc1cc(O)cc([C@@H]2c3c(cc(OC)c4c3[C@H](CO)[C@H](c3ccc(O)c(OC)c3)O4)C[C@H](CO)[C@H]2CO)c1
IC50 [4]: 5.17 µM

COc1cc([C@H]2OC[C@H]3[C@@H]2CO[C@@H]3c2ccc(O[C@H](CO)[C@@H](O)c3ccc(O)c(OC)c3)c(OC)c2)ccc1O
IC50 [4]: 6.73 µM

COc1cc([C@@H]2c3cc(O[C@H](CO)[C@H](O)c4ccc(O)c(OC)c4)c(OC)cc3C[C@H](CO)[C@H]2CO)ccc1O
Activity (SH-SY5Y [2]): 80.72%

COc1ccc([C@@H](O)[C@@H](C)Oc2ccc([C@H]3O[C@H](c4ccc5c(c4)OCO5)[C@H](C)[C@H]3C)cc2OC)cc1OC
Activity (RAW264.7): 2.62%

COc1cc([C@H]2Oc3c(OC)cc(C[C@H]4C(=O)OC[C@@H]4Cc4ccc(OC)c(OC)c4)cc3[C@@H]2CO)ccc1O
IC50 (K562): 38.5 µg/mL (≈ 69.9 µM)

COc1cc([C@@H](O)[C@H](CO)Oc2ccc([C@H]3OC[C@H]4[C@@H]3CO[C@@H]4c3ccc(O)c(OC)c3)cc2OC)ccc1O
IC50 [4]: 5.17 µM

COc1cc([C@@H](O)[C@@H](CO)Oc2c(OC)cc([C@@H]3Oc4c(OC)cc([C@H](O)[C@@H](O)CO)cc4[C@H]3CO)cc2OC)ccc1O
Activity (SH-SY5Y [1]): 63.72%

COCc1c(-c2ccc(O)c(OC)c2)oc2c(OC)cc([C@H]3OC[C@@H]4[C@H]3CO[C@@H]4c3ccc(O)c(OC)c3)cc12
IC50 at 48 h [6]: 32.8 µM

COc1cc([C@H]2OC[C@H]3[C@@H]2CO[C@@H]3c2cc(OC)c(O[C@@H](CO)[C@@H](OC)c3ccc(O)c(OC)c3)c(OC)c2)ccc1O
IC50 [3]: 55.8 µM

COc1cc(CC(CO)C(CO)Cc2ccc(OC(CO)C(O)c3ccc(O)c(OC)c3)c(OC)c2)ccc1O (centres undefined)
EC50 (CNE-2): 2.4 µg/mL (≈ 4.3 µM)
IC50 (HeLa): 195 µg/mL (≈ 348 µM)

Oc1ccc(/C=C/C[C@@H]2CC(C(O)c3ccc(O)cc3)CO[C@H]2c2ccc(O)cc2)cc1 (some centres undefined)
Activity (RAW264.7): 33%

COc1cc([C@@H]2c3cc(O[C@H](CO)[C@@H](O)c4ccc(O)c(OC)c4)c(OC)cc3C[C@H](CO)[C@@H]2CO)ccc1O
Activity (SH-SY5Y [2]): 79.36%

COc1cc([C@H]2OC[C@H]3[C@@H]2CO[C@@H]3c2cc(OC)c3c(c2)[C@H](CO)[C@@H](c2ccc(O)c(OC)c2)O3)ccc1O
inhibition at 10 µM (BV-2 [7]): 50.7%

COc1cc([C@@H](O)[C@@H](CO)Oc2c(OC)cc([C@@H]3OC[C@@H]4[C@H]3CO[C@H]4c3cc(OC)c(O)c(OC)c3)cc2OC)ccc1O
IC50 [4]: 15.4 µM

C=CCc1ccc(O)c(-c2cc(CC=C)cc(-c3cc(CC=C)ccc3O)c2O[C@H]2CC(C)(C)[C@@H]3CC[C@]4(C)C[C@]23CC[C@H]4O)c1
IC50 (Acetylcholinesterase): 4.58 µM

COc1cc([C@@H](O)[C@@H](CO)Oc2c(OC)cc([C@@H]3Oc4c(OC)cc([C@H](O)[C@H](O)CO)cc4[C@H]3CO)cc2OC)ccc1O
Activity (SH-SY5Y [1]): 75.63%

COc1cc([C@H](OC)[C@@H](CO)Oc2ccc([C@@H](O)[C@H](CO)Oc3ccc(CCCO)cc3OC)cc2OC)ccc1O
Activity (SH-SY5Y [1]): 74.22%

COc1ccc([C@@H]2O[C@H](c3ccc(OC)c(O[C@H](C)[C@@H](O)c4ccc(O)c(OC)c4)c3)[C@H](C)[C@H]2C)cc1O
IC50 (MCF7): 8.8 µM
Activity (RAW264.7): 18.1%

OC[C@@H]1Oc2ccc([C@H]3OC[C@H]4[C@@H]3CO[C@@H]4c3ccc(O)c(O)c3)cc2O[C@H]1c1ccc(O)c(O)c1 [PRINCEPIN]
IC50 (BV-2 [5]): 1.28 µM

COC[C@H]1c2cc(C[C@@H]3C(=O)OC[C@H]3Cc3ccc(O)c(OC)c3)ccc2O[C@@H]1c1ccc(O)c(OC)c1
Activity (RAW264.7): 8.59%

C=CCc1ccc(O)c(-c2cc(CC=C)cc(-c3cc(CC=C)ccc3O)c2O[C@@H]2C[C@@H](C(C)C)C=C[C@]2(C)O)c1
IC50 (Acetylcholinesterase): 6.55 µM

COc1cc([C@@H](O)[C@@H](CO)Oc2ccc([C@H](O)[C@H](CO)Oc3c(OC)cc([C@H](O)[C@H](O)CO)cc3OC)cc2OC)ccc1O
Activity (SH-SY5Y [1]): 74.78%

COc1cc(/C=C/C=O)cc2c1O[C@H](c1ccc3c(c1)[C@H](CO)[C@@H](c1ccc(O)cc1)O3)[C@H]2CO
IC50 (BV-2 [5]): 38.9 µM

COc1cc([C@@H]2c3c(cc(OC)c4c3[C@H](CO)[C@H](c3ccc(O)c(OC)c3)O4)C[C@H](CO)[C@H]2CO)ccc1O
Activity (RAW264.7): 19.46%

COc1ccc([C@@H]2O[C@H](c3ccc(OC)c(O[C@@H](C)[C@@H](OC)c4ccc(OC)c(O)c4)c3)[C@@H](C)[C@@H]2C)cc1O
IC50 (MCF7): 8.4 µM
Activity (RAW264.7): 18.1%

COc1cc([C@@H](O)[C@@H](C)Oc2ccc([C@@H]3O[C@H](c4ccc(O)c(OC)c4)[C@H](C)[C@H]3C)cc2OC)ccc1O
EC50 (Ebolavirus): 6.95 µM

COc1cc([C@@H](O)[C@@H](C)Oc2ccc([C@H]3O[C@@H](c4ccc(O)c(OC)c4)[C@H](C)[C@H]3C)cc2OC)ccc1O
IC50 (MCF7): 9.8 µM
Activity (RAW264.7): 18.1%
IC50 (HL-60): 11 µM
IC50 (HepG2): 11 µM

COc1cc(C[C@@H](CO)[C@H](CO)Cc2cc(OC)c3c(c2)[C@H](CO)[C@@H](c2ccc(O)c(OC)c2)O3)ccc1O
EC50 (CNE-2): 2 µg/mL (≈ 3.7 µM)
IC50 (HeLa): 114 µg/mL (≈ 211 µM)

COc1cc([C@H]2O[C@H](c3ccc4c(c3)OCO4)[C@H](C)[C@H]2C)ccc1O[C@H](C)[C@H](O)c1ccc2c(c1)OCO2
IC50 (HT-29): 10 µM

COc1cc([C@@H](O)[C@@H](CO)Oc2ccc([C@@H](O)[C@H](CO)Oc3c(OC)cc(CCCO)cc3OC)cc2OC)ccc1O
Activity (SH-SY5Y [2]): 77.58%

COc1cc(C[C@H]2COC(=O)[C@@H]2Cc2cc(OC)c3c(c2)[C@H](CO)[C@@H](c2ccc(O)c(OC)c2)O3)ccc1O
IC50 (K562): 53.5 µg/mL (≈ 99.7 µM)

OC/C=C/c1ccc2c(c1)O[C@H](c1ccc3c(c1)O[C@@H](c1ccc(O)c(O)c1)[C@H](CO)O3)[C@@H](CO)O2
IC50 [4]: 0.62 µM
